Common to all, as to test: Enzymatic Assay
Common to all, as to settings: pH 8; 37 °C

The target in assay [1] is T1, UDP-N-acetylmuramoyl-tripeptide--D-alanyl-D-alanine ligase (Escherichia coli (strain K12), UniProt P11880).
T1 sequence (P11880 whole entry): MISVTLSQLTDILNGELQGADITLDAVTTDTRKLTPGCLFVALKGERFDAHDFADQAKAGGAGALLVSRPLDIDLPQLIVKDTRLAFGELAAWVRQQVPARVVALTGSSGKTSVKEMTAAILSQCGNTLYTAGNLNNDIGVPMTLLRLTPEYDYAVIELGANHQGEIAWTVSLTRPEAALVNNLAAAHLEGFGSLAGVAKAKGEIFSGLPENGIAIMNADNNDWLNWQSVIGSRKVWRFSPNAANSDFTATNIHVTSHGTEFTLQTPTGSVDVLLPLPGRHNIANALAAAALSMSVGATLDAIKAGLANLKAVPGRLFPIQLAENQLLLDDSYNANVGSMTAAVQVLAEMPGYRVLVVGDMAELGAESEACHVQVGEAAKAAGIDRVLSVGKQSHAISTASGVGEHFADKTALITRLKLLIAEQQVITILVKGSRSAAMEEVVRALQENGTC
As for the experimental part: (§1) Compounds were tested for their inhibition of the addition of L-Ala, D-Glu, L-Lys or D-Ala-D-Ala to nucleotide precursors catalyzed by MurC from Escherichia coli, MurD from E. coli, MurE from Staphylococcus aureus, and MurF from E coli. The detection of the orthophosphate generated during the reaction was based on the colorimetric Malachite green method.

In assay [2] the target is T2, UDP-N-acetylmuramoyl-L-alanyl-D-glutamate--L-lysine ligase (Staphylococcus aureus (strain NCTC 8325 / PS 47), UniProt Q2FZP6).
T2 sequence (Q2FZP6 whole entry): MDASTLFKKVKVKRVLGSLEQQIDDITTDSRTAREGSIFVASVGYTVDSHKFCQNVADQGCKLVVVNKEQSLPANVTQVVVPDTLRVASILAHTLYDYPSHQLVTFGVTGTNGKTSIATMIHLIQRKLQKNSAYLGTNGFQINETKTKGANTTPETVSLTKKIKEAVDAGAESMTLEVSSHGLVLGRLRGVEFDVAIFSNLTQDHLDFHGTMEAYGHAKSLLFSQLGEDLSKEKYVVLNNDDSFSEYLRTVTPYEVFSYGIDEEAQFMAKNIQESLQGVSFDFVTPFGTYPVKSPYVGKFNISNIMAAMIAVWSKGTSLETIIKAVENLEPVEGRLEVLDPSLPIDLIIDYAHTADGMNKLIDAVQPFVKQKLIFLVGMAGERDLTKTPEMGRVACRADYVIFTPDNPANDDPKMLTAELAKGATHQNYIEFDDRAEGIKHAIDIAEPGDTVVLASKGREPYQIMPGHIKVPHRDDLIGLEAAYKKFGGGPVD
The protocol:
as §1

Assay [3] has as its target UDP-N-acetylmuramate--L-alanine ligase (Escherichia coli (strain K12), UniProt P17952). The protocol: as §1

The record followed here is BindingDB's records for doi:10.1016/j.bioorg.2009.09.001 (University of Ljubljana, 2009).

Molecules are shown by their SMILES.

By IC50 is commonly meant the concentration needed to halve the response being measured. A higher IC50 goes with a need for much substance.

Chain of UDP-N-acetylmuramate--L-alanine ligase (P17952 whole entry): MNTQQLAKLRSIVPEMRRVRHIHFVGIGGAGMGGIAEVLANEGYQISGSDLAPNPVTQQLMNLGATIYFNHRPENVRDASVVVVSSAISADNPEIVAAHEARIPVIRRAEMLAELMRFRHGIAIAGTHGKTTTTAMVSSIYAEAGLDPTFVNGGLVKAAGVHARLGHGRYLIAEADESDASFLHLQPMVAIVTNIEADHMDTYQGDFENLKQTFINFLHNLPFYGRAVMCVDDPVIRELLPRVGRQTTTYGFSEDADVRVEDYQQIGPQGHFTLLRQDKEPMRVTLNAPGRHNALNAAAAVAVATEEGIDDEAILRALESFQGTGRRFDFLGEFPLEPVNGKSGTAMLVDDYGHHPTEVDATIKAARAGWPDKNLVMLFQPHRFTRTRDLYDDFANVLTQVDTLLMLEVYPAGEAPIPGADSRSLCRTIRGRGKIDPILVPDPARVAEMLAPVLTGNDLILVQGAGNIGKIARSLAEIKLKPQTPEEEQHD

For the compound `O=P(O)(O)OC(CNS(=O)(=O)c1cccc(C(F)(F)F)c1)CN1CCOCC1` (stereo not drawn) [HEA derivative, 7d], the results for the half-maximal inhibitory concentration (IC50) in assay [1], in assay [2] and in assay [3] were 150 µM, 160 µM and 530 µM, respectively.

Consider `COc1ccc(S(=O)(=O)NCC(CN2CCOCC2)OP(=O)(O)O)cc1` (stereo not drawn), for which the IC50 in assay [1] amounted to 530 µM; in assay [2] it was 6 µM; in assay [3], 490 µM.

As for `O=P(O)(O)OC(CNS(=O)(=O)c1ccc(C(F)(F)F)cc1)CN1CCOCC1` (stereo not drawn) [MurC/D/E/F inhibitor (compound 68)], the 50% inhibitory concentration (IC50) in assay [1] came to 240 µM; in assay [2], 57 µM; in assay [3], 200 µM.

On to `CCc1ccc(S(=O)(=O)NCC(CN2CCOCC2)OP(=O)(O)O)cc1` (stereo not drawn) [HEA derivative, 7f], for which the results for the IC50 in assay [1], in assay [2] and in assay [3] were 360 µM, 61 µM and 760 µM, respectively.

Take `O=P(O)(O)OC(CNS(=O)(=O)c1ccc(F)cc1)CN1CCOCC1` (stereo not drawn) [HEA derivative, 7b]: the results for the IC50 in assay [1], in assay [2] and in assay [3] were 270 µM, 120 µM and 790 µM, respectively.

Take `Cc1ccc(S(=O)(=O)NCC(CN2CCOCC2)OP(=O)(O)O)cc1` (stereo not drawn) [HEA derivative, 7e]: the IC50 in assay [1] was 560 µM; in assay [2], 120 µM; in assay [3], 540 µM.
